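Briefly, cells in 96-well plates were exposed to five compound concentrations for 48 h, and endpoints were estimated by linear interpolation. TGI: total growth inhibition.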
How the values were obtained:
Experiment in all cases: NCI-60 cell line screen, 48 h
K-562 leukemia = system: K-562 leukemia
A549 NSCLC = system: A549 NSCLC
HCT-15 colon = system: HCT-15 colon
HCC-2998 colon = system: HCC-2998 colon
RXF 393 renal = system: RXF 393 renal
SF-539 CNS = system: SF-539 CNS
EKVX NSCLC = system: EKVX NSCLC
T-47D breast = system: T-47D breast
CAKI-1 renal = system: CAKI-1 renal
SNB-19 CNS = system: SNB-19 CNS
BT-549 breast = system: BT-549 breast
KM12 colon = system: KM12 colon
UACC-62 melanoma = system: UACC-62 melanoma
SR leukemia = system: SR leukemia
SK-MEL-2 melanoma = system: SK-MEL-2 melanoma
SK-MEL-5 melanoma = system: SK-MEL-5 melanoma
HS 578T breast = system: HS 578T breast
NCI-H522 lung = system: NCI-H522 lung
SNB-75 CNS = system: SNB-75 CNS

Compound	TGI (K-562 leukemia) [µM]	TGI (A549 NSCLC) [µM]	TGI (HCT-15 colon) [µM]	TGI (HCC-2998 colon) [µM]	TGI (RXF 393 renal) [µM]	TGI (SF-539 CNS) [µM]	TGI (EKVX NSCLC) [µM]	TGI (T-47D breast) [µM]	TGI (CAKI-1 renal) [µM]	TGI (SNB-19 CNS) [µM]	TGI (BT-549 breast) [µM]	TGI (KM12 colon) [µM]	TGI (UACC-62 melanoma) [µM]	TGI (SR leukemia) [µM]	TGI (SK-MEL-2 melanoma) [µM]	TGI (SK-MEL-5 melanoma) [µM]	TGI (HS 578T breast) [µM]	TGI (NCI-H522 lung) [µM]	TGI (SNB-75 CNS) [µM]
CCCCNC(=S)/N=C/c1c(O)c2ccccc2[nH]c1=O	> 10	> 10	> 10	> 10	> 10	> 10	> 10	> 10	> 10	> 10	> 10	> 10	> 10	> 10	–	–	–	–	–
COc1ccc(CCc2nccn2C)cc1OC	> 100	> 100	> 100	> 100	–	> 100	> 100	–	> 100	> 100	> 100	–	> 100	> 100	> 100	> 100	> 100	–	–
N#Cc1c(N2CCOCC2)[nH]c(=O)c(C(c2c(Cl)cccc2Cl)c2c(O)c(C#N)c(N3CCOCC3)[nH]c2=O)c1O	23.2	> 100	28.2	27.5	35.5	34.9	39	–	33.2	29.6	32.8	32.7	30.2	26.3	39.5	35.4	58.1	28.2	–
COC(=O)c1c(-c2ccccc2)c2sc3ccccc3n2c1N	> 100	> 100	> 100	> 100	55.1	> 100	> 100	87.5	> 100	> 100	> 100	88.8	> 100	> 100	70.7	> 100	–	73.2	> 100
COc1cccc(-c2nc(-c3cnccn3)n(COCCO)n2)c1	> 100	> 100	> 100	> 100	> 100	> 100	–	> 100	–	> 100	> 100	> 100	> 100	> 100	–	> 100	–	> 100	–
CN(C)Cc1cc(C(C)(C)C)cc(C2CCCCC2)c1O	24.5	26.5	28.6	–	26.4	22.8	24.1	21.6	35	25.6	–	26.4	29.8	25.6	35	27.4	33.9	37.2	22.1
CCC(=O)C(C(C)/C=C/CCSc1ccccc1)C(O)CCCCCC(=O)OC (stereo not given)	> 100	> 100	> 100	> 100	> 100	> 100	> 100	–	> 100	> 100	> 100	> 100	> 100	> 100	> 100	> 100	–	> 100	> 100
N#Cc1nc(COCCOCc2ccc(F)cc2)oc1N	> 100	> 100	> 100	> 100	> 100	> 100	> 100	> 100	> 100	–	> 100	> 100	> 100	> 100	> 100	> 100	–	> 100	> 100
COc1ccc(N=[N+]([O-])c2ccc(OC)cc2)cc1	> 100	> 100	> 100	> 100	> 100	–	> 100	–	> 100	> 100	> 100	> 100	> 100	–	> 100	> 100	> 100	> 100	> 100
CCCC[C@H]1CCN2C[C@@H](O)[C@@H](O)[C@H]2[C@@H]1O	> 100	> 100	> 100	> 100	–	> 100	> 100	> 100	> 100	> 100	> 100	> 100	> 100	–	> 100	> 100	> 100	> 100	> 100
CC(C)C(NC(=O)C(Cc1ccccc1)NC(=O)[C@H]1CCC[C@H]1NC(=O)C(N)Cc1ccc(O)cc1)C(N)=O (stereo not given in full)	> 100	> 100	> 100	> 100	> 100	> 100	> 100	> 100	> 100	> 100	–	> 100	> 100	> 100	> 100	> 100	> 100	> 100	> 100
CC(=O)ON(C(C)=O)c1ccc(-c2nc3ccccc3s2)cc1C	> 100	> 100	> 100	> 100	–	> 100	> 100	–	> 100	> 100	> 100	> 100	> 100	> 100	> 100	> 100	> 100	> 100	> 100
c1ccc2cc3c(cc2c1)nc1ccccn13	> 100	> 100	> 100	> 100	> 100	> 100	> 100	> 100	–	> 100	> 100	> 100	> 100	> 100	–	> 100	> 100	–	> 100
O=C1c2ccccc2-c2c1c(-c1cccc(Br)c1)nc1ccc3ccccc3c21	> 100	> 100	> 100	> 100	> 100	> 100	> 100	> 100	> 100	> 100	> 100	> 100	> 100	–	> 100	–	> 100	–	> 100
CC(C)C(NCc1c(O)ccc2c(-c3ccccc3)cc(=O)oc12)C(=O)O (stereo not given)	> 100	> 100	> 100	> 100	> 100	> 100	> 100	> 100	> 100	> 100	–	> 100	> 100	> 100	> 100	> 100	> 100	> 100	> 100
CCc1n[nH]c(=O)n1CCO	> 100	> 100	> 100	> 100	–	> 100	> 100	> 100	> 100	> 100	> 100	> 100	> 100	–	> 100	> 100	–	–	–
CC(=O)OCC(Br)C1(C)CCC(C(C)(C)Br)O1 (stereo not given)	> 100	> 100	–	> 100	> 100	> 100	> 100	–	> 100	> 100	> 100	> 100	–	> 100	> 100	> 100	> 100	86.7	> 100
Cc1cc2c(cc1Cl)SC(NNc1ccc([N+](=O)[O-])cc1)=NS2(=O)=O	> 10	> 10	> 10	> 10	> 10	> 10	> 10	> 10	> 10	> 10	> 10	> 10	> 10	–	> 10	> 10	> 10	> 10	> 10
N#CC(C#N)=Cn1c(=S)[nH]c2ccccc21	> 100	> 100	–	> 100	> 100	> 100	> 100	> 100	> 100	> 100	–	> 100	> 100	> 100	> 100	> 100	> 100	> 100	> 100
O=C(CSC1=NNC2(C(=O)N1)c1ccccc1-c1ccccc12)NC(=S)Nc1ccccc1	> 10	> 10	> 10	> 10	> 10	> 10	> 10	> 10	> 10	> 10	> 10	> 10	> 10	> 10	–	> 10	–	> 10	> 10
CC(C)(C)OC(=O)N(CCCCNCc1ccc2ccccc2c1)CCCNCc1ccc2ccccc2c1	1.11	3.82	3.12	0.549	–	2.97	3.05	3.44	2.45	3.22	3.25	2.73	3.08	–	–	–	3.3	3.07	2.99
c1ccc(CC2(c3cc4ccccc4[nH]3)OCCO2)nc1	> 100	> 100	> 100	–	> 100	> 100	> 100	> 100	> 100	> 100	> 100	> 100	> 100	–	> 100	> 100	> 100	> 100	> 100

Source: PubChem BioAssay (NCI)
